Earlier results as cited in patent US9901098B2, “Methods for plant protection” (TDA Research, Inc, priority 2015, dated 2018).

[O][Cl+][O-] [ClO2, chlorine dioxide]
concentration that effectively kills microbes (microbes; aqueous solutions): ≤ 1 ppm | time required to kill microbes (microbes; solutions containing 1 ppm ClO2 or less): as short as one minute | permissible exposure level (PEL) in air (human workers): 0.1 ppm
